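Briefly, cells in 96-well plates were exposed to five compound concentrations for 48 h, and endpoints were estimated by linear interpolation. GI50 marks 50% less growth. TGI denotes the concentration required for complete inhibition of growth.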
Tests used:
Assay in all cases: inhibition of tumour cell growth, NCI panel, 48 h
SW-620 colon = test system: SW-620 colon
SF-295 CNS = test system: SF-295 CNS
SF-268 CNS = test system: SF-268 CNS
A498 renal = test system: A498 renal
NCI-H23 lung = test system: NCI-H23 lung
NCI/ADR-RES ovarian = test system: NCI/ADR-RES ovarian
U251 CNS = test system: U251 CNS
CAKI-1 renal = test system: CAKI-1 renal
SR leukemia = test system: SR leukemia
HS 578T breast = test system: HS 578T breast
UACC-257 melanoma = test system: UACC-257 melanoma
TK-10 renal = test system: TK-10 renal
NCI-H522 lung = test system: NCI-H522 lung
MDA-MB-435 = test system: MDA-MB-435
ACHN renal = test system: ACHN renal
MCF7 breast = test system: MCF7 breast
SN12C renal = test system: SN12C renal
SNB-75 CNS = test system: SNB-75 CNS
SK-MEL-5 melanoma = test system: SK-MEL-5 melanoma
OVCAR-3 ovarian = test system: OVCAR-3 ovarian
CCRF-CEM leukemia = test system: CCRF-CEM leukemia
OVCAR-5 ovarian = test system: OVCAR-5 ovarian
MDA-MB-231 breast = test system: MDA-MB-231 breast
SNB-19 CNS = test system: SNB-19 CNS
786-0 renal = test system: 786-0 renal
HCC-2998 colon = test system: HCC-2998 colon
HCT-116 colon = test system: HCT-116 colon
NCI-H460 lung = test system: NCI-H460 lung
DU-145 prostate = test system: DU-145 prostate
HOP-62 NSCLC = test system: HOP-62 NSCLC
HCT-15 colon = test system: HCT-15 colon
MALME-3M melanoma = test system: MALME-3M melanoma
COLO 205 colon = test system: COLO 205 colon
OVCAR-4 ovarian = test system: OVCAR-4 ovarian
SK-MEL-28 melanoma = test system: SK-MEL-28 melanoma
NCI-H226 lung = test system: NCI-H226 lung
M14 melanoma = test system: M14 melanoma
BT-549 breast = test system: BT-549 breast
T-47D breast = test system: T-47D breast
SK-MEL-2 melanoma = test system: SK-MEL-2 melanoma
SK-OV-3 ovarian = test system: SK-OV-3 ovarian
MOLT-4 leukemia = test system: MOLT-4 leukemia
SF-539 CNS = test system: SF-539 CNS
UACC-62 melanoma = test system: UACC-62 melanoma
PC-3 prostate = test system: PC-3 prostate
UO-31 renal = test system: UO-31 renal
KM12 colon = test system: KM12 colon
HT29 colon = test system: HT29 colon
RPMI-8226 leukemia = test system: RPMI-8226 leukemia
OVCAR-8 ovarian = test system: OVCAR-8 ovarian
K-562 leukemia = test system: K-562 leukemia
LOX IMVI melanoma = test system: LOX IMVI melanoma
EKVX NSCLC = test system: EKVX NSCLC
IGROV1 ovarian = test system: IGROV1 ovarian
A549 NSCLC = test system: A549 NSCLC

Compound O=C(Nc1ccc(Br)cc1)c1cc(Br)cc(Br)c1O has a GI50 (SW-620 colon) of 3.39 µM, a TGI (SW-620 colon) of 12.6 µM and a GI50 (SF-295 CNS) of 1.83 µM. It also gave a TGI (SF-295 CNS) of 5 µM, a GI50 (SF-268 CNS) of 3.59 µM and a TGI (SF-268 CNS) of 18.6 µM. The GI50 (A498 renal) was 1.82 µM, the TGI (A498 renal) was 4.37 µM and the GI50 (NCI-H23 lung) was 2.18 µM. It also gave a TGI (NCI-H23 lung) of 6.8 µM, a GI50 (NCI/ADR-RES ovarian) of 2.94 µM and a TGI (NCI/ADR-RES ovarian) of 9.47 µM. It also gave a GI50 (U251 CNS) of 2.79 µM, a TGI (U251 CNS) of 23.1 µM and a GI50 (CAKI-1 renal) of 1.73 µM. The TGI (CAKI-1 renal) was 4.59 µM, the GI50 (SR leukemia) was 3.87 µM and the TGI (SR leukemia) was over 100 µM. It also gave a GI50 (HS 578T breast) of 2.71 µM, a TGI (HS 578T breast) of 7.74 µM and a GI50 (UACC-257 melanoma) of 2.08 µM. For the same compound, the TGI (UACC-257 melanoma) was 5.41 µM, the GI50 (TK-10 renal) was 4.2 µM and the TGI (TK-10 renal) was over 100 µM. The GI50 (NCI-H522 lung) was 2.23 µM, the TGI (NCI-H522 lung) was 7.7 µM and the GI50 (MDA-MB-435) was 2.27 µM. The TGI (MDA-MB-435) was 6.09 µM, the GI50 (ACHN renal) was 2.31 µM and the TGI (ACHN renal) was 6.66 µM. For the same compound, the GI50 (MCF7 breast) was 2.46 µM, the TGI (MCF7 breast) was over 100 µM and the GI50 (SN12C renal) was 2.77 µM. For the same compound, the TGI (SN12C renal) was 12.9 µM, the GI50 (SNB-75 CNS) was 2.16 µM and the TGI (SNB-75 CNS) was 7.11 µM. The GI50 (SK-MEL-5 melanoma) was 2.15 µM, the TGI (SK-MEL-5 melanoma) was 4.57 µM and the GI50 (OVCAR-3 ovarian) was 2.95 µM. The TGI (OVCAR-3 ovarian) was 8 µM, the GI50 (CCRF-CEM leukemia) was 3.73 µM and the TGI (CCRF-CEM leukemia) was over 100 µM. For the same compound, the GI50 (OVCAR-5 ovarian) was 2.7 µM, the TGI (OVCAR-5 ovarian) was 19.6 µM and the GI50 (MDA-MB-231 breast) was 2.08 µM. The TGI (MDA-MB-231 breast) was 6.28 µM, the GI50 (SNB-19 CNS) was 3.55 µM and the TGI (SNB-19 CNS) was over 100 µM. The GI50 (786-0 renal) was 3.02 µM, the TGI (786-0 renal) was 29.7 µM and the GI50 (HCC-2998 colon) was 3.35 µM. For the same compound, the TGI (HCC-2998 colon) was 10.1 µM, the GI50 (HCT-116 colon) was 2.41 µM and the TGI (HCT-116 colon) was 8.31 µM. For the same compound, the GI50 (NCI-H460 lung) was 2.6 µM, the TGI (NCI-H460 lung) was 6.86 µM and the GI50 (DU-145 prostate) was 3.56 µM. The TGI (DU-145 prostate) was 19.9 µM, the GI50 (HOP-62 NSCLC) was 2.45 µM and the TGI (HOP-62 NSCLC) was 6.5 µM. The GI50 (HCT-15 colon) was 3.2 µM, the TGI (HCT-15 colon) was 13.5 µM and the GI50 (MALME-3M melanoma) was 2.15 µM. The TGI (MALME-3M melanoma) was 5.63 µM, the GI50 (COLO 205 colon) was 2.33 µM and the TGI (COLO 205 colon) was 4.59 µM. The GI50 (OVCAR-4 ovarian) was 3.33 µM, the TGI (OVCAR-4 ovarian) was over 100 µM and the GI50 (SK-MEL-28 melanoma) was 4.71 µM. For the same compound, the TGI (SK-MEL-28 melanoma) was 31.4 µM, the GI50 (NCI-H226 lung) was 3.45 µM and the TGI (NCI-H226 lung) was 12.3 µM. For the same compound, the GI50 (M14 melanoma) was 2.99 µM, the TGI (M14 melanoma) was 11.3 µM and the GI50 (BT-549 breast) was 3.08 µM. It also gave a TGI (BT-549 breast) of 14.4 µM, a GI50 (T-47D breast) of 2.74 µM and a TGI (T-47D breast) of 28.4 µM. For the same compound, the GI50 (SK-MEL-2 melanoma) was 2.27 µM, the TGI (SK-MEL-2 melanoma) was 6.12 µM and the GI50 (SK-OV-3 ovarian) was 3.14 µM. For the same compound, the TGI (SK-OV-3 ovarian) was over 100 µM, the GI50 (MOLT-4 leukemia) was 3.83 µM and the TGI (MOLT-4 leukemia) was over 100 µM. It also gave a GI50 (SF-539 CNS) of 2.89 µM, a TGI (SF-539 CNS) of 12.4 µM and a GI50 (UACC-62 melanoma) of 2.56 µM. The TGI (UACC-62 melanoma) was 15 µM, the GI50 (PC-3 prostate) was 2.65 µM and the TGI (PC-3 prostate) was 8.82 µM. It also gave a GI50 (UO-31 renal) of 3.1 µM, a TGI (UO-31 renal) of 11.5 µM and a GI50 (KM12 colon) of 2.59 µM. For the same compound, the TGI (KM12 colon) was 8.09 µM, the GI50 (HT29 colon) was 4.02 µM and the TGI (HT29 colon) was 22.7 µM. For the same compound, the GI50 (RPMI-8226 leukemia) was 1.67 µM, the TGI (RPMI-8226 leukemia) was 6.26 µM and the GI50 (OVCAR-8 ovarian) was 2.89 µM. It also gave a TGI (OVCAR-8 ovarian) of 11 µM, a GI50 (K-562 leukemia) of 3.1 µM and a TGI (K-562 leukemia) of over 100 µM. For the same compound, the GI50 (LOX IMVI melanoma) was 3.24 µM, the TGI (LOX IMVI melanoma) was 10.1 µM and the GI50 (EKVX NSCLC) was 1.76 µM. The TGI (EKVX NSCLC) was 7.38 µM, the GI50 (IGROV1 ovarian) was 3.02 µM and the TGI (IGROV1 ovarian) was 15.6 µM. For the same compound, the GI50 (A549 NSCLC) was 2.65 µM and the TGI (A549 NSCLC) was 7.9 µM.

Source: PubChem BioAssay (NCI)
